The assay has as its target T1, G-Flamp1 (cpGFP inserted into mlCNBD of the MlotiK1 channel) (Mesorhizobium japonicum, UniProt Q98GN8, P285N/S308V).
T1 construct: gene mll3241; GFP D173G plus Citrine/sfGFP mutations) inserted between residues 285 and 286; N-terminal RSET 6xHis tag kept for Kd; tag-free (SUMO cut) for crystal; E. coli; monomer
T1 sequence (Q98GN8 213-355 P285N/S308V): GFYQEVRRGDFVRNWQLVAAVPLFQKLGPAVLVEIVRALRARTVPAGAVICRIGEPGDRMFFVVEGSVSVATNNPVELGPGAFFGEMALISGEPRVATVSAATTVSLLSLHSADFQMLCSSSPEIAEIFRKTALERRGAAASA
As to the kind of experiment: fluorescence titration of purified sensor (ex […] nm), sigmoidal fit. It is filed as binding.

SMILES strings stand for the structures.

In general, Kd refers to the free concentration of one partner at which half of the binding sites on the other are occupied at equilibrium, for simple one-to-one binding.

As for `Nc1nc2c(ncn2[C@@H]2O[C@@H]3COP(=O)(O)O[C@H]3[C@H]2O)c(=O)[nH]1` [cGMP], the Kd stood at 30.1 µM.

Values taken from paper PMC9468011 (Nature Communications, 2022).
